Reference: PubChem BioAssay AID1745844 (Carcinogenic Potency Database (CPDB), 2022)
The source made the active and inactive calls. The rule behind the calls is not given here.

Tested on: rodent lifetime carcinogenesis bioassay, tumor incidence TD50
Test: chronic cancer bioassays in animals – CPDB, compiled studies (AID 1745844)
[1] = mouse, strain B6AKF1, females, oral dosing, site: any site (literature study), lesion: several types, types named in the paper, dosed 76 weeks, study length 76 weeks
[2] = mouse, strain B6AKF1, females, oral dosing, site: liver, lesion: hepatoma, dosed 76 weeks, study length 76 weeks
[3] = mouse, strain B6AKF1, females, oral dosing, site: lung, lesion: adenoma, dosed 76 weeks, study length 76 weeks
[4] = mouse, strain B6AKF1, males, oral dosing, site: any site (literature study), lesion: several types, types named in the paper, dosed 76 weeks, study length 76 weeks
[5] = mouse, strain B6AKF1, males, oral dosing, site: liver, lesion: hepatoma, dosed 76 weeks, study length 76 weeks
[6] = mouse, strain B6AKF1, males, oral dosing, site: lung, lesion: adenoma, dosed 76 weeks, study length 76 weeks
[7] = mouse, strain B6C3F1, females, oral dosing, site: any site (literature study), lesion: several types, types named in the paper, dosed 76 weeks, study length 76 weeks
[8] = mouse, strain B6C3F1, females, oral dosing, site: liver, lesion: hepatoma, dosed 76 weeks, study length 76 weeks
[9] = mouse, strain B6C3F1, males, oral dosing, site: any site (literature study), lesion: several types, types named in the paper, dosed 76 weeks, study length 76 weeks
[10] = mouse, strain B6C3F1, males, oral dosing, site: liver, lesion: hepatoma, dosed 76 weeks, study length 76 weeks

C[C@]12CC[C@@H]3c4ccc(OC(=O)Cc5ccc(N(CCCl)CCCl)cc5)cc4CC[C@H]3[C@@H]1CC[C@@H]2OC(=O)Cc1ccc(N(CCCl)CCCl)cc1
TD50 (mouse, strain B6C3F1, females, by gavage, site: all sites + lung + myocardium + stomach, lesion: lymphoma + alveolar/bronchiolar adenoma + alveolar/bronchiolar carcinoma + sarcoma, NOS + squamous-cell carcinoma, dosed 52 weeks, study length 84 weeks): 0.682 mg/kg/day | TD50 (mouse, strain B6C3F1, females, by gavage, site: all sites, lesion: lymphoma, dosed 52 weeks, study length 82 weeks): 2.23 mg/kg/day | TD50 (mouse, strain B6C3F1, females, by gavage, site: all sites, lesion: lymphoma, dosed 52 weeks, study length 84 weeks): 2.34 mg/kg/day | TD50 (mouse, strain B6C3F1, females, by gavage, site: any site (literature study), lesion: several types, types named in the paper, dosed 52 weeks, study length 84 weeks): 0.562 mg/kg/day | TD50 (mouse, strain B6C3F1, females, by gavage, site: lung, lesion: alveolar/bronchiolar adenoma + alveolar/bronchiolar carcinoma, dosed 52 weeks, study length 82 weeks): 1.28 mg/kg/day | TD50 (mouse, strain B6C3F1, females, by gavage, site: lung, lesion: alveolar/bronchiolar adenoma + alveolar/bronchiolar carcinoma, dosed 52 weeks, study length 84 weeks): 1.14 mg/kg/day | TD50 (mouse, strain B6C3F1, females, by gavage, site: lung, lesion: alveolar/bronchiolar carcinoma, dosed 52 weeks, study length 82 weeks): 2.87 mg/kg/day | TD50 (mouse, strain B6C3F1, females, by gavage, site: mammary gland, lesion: adenocarcinoma, NOS + carcinoma, NOS, dosed 52 weeks, study length 82 weeks): 12.8 mg/kg/day | TD50 (mouse, strain B6C3F1, females, by gavage, site: mammary gland, lesion: adenocarcinoma, NOS + carcinoma, NOS, dosed 52 weeks, study length 84 weeks): 13.4 mg/kg/day | TD50 (mouse, strain B6C3F1, females, by gavage, site: myocardium, lesion: sarcoma, NOS, dosed 52 weeks, study length 82 weeks): 3.22 mg/kg/day | TD50 (mouse, strain B6C3F1, females, by gavage, site: myocardium, lesion: sarcoma, NOS, dosed 52 weeks, study length 84 weeks): 3.01 mg/kg/day | TD50 (mouse, strain B6C3F1, females, by gavage, site: stomach, lesion: squamous-cell carcinoma, dosed 52 weeks, study length 84 weeks): 5.17 mg/kg/day | TD50 (mouse, strain B6C3F1, males, by gavage, site: all sites + stomach, lesion: leukemia + lymphoma + squamous-cell carcinoma, dosed 52 weeks, study length 83 weeks): 4.1 mg/kg/day | TD50 (mouse, strain B6C3F1, males, by gavage, site: all sites, lesion: leukemia + lymphoma, dosed 52 weeks, study length 81 weeks): 4.31 mg/kg/day | TD50 (mouse, strain B6C3F1, males, by gavage, site: all sites, lesion: leukemia + lymphoma, dosed 52 weeks, study length 83 weeks): 4.39 mg/kg/day | TD50 (mouse, strain B6C3F1, males, by gavage, site: any site (literature study), lesion: several types, types named in the paper, dosed 52 weeks, study length 83 weeks): 1.96 mg/kg/day | TD50 (mouse, strain B6C3F1, males, by gavage, site: lung, lesion: alveolar/bronchiolar adenoma + alveolar/bronchiolar carcinoma, dosed 52 weeks, study length 81 weeks): 1.99 mg/kg/day | TD50 (mouse, strain B6C3F1, males, by gavage, site: lung, lesion: alveolar/bronchiolar adenoma + alveolar/bronchiolar carcinoma, dosed 52 weeks, study length 83 weeks): 2.34 mg/kg/day | TD50 (mouse, strain B6C3F1, males, by gavage, site: lung, lesion: alveolar/bronchiolar carcinoma, dosed 52 weeks, study length 81 weeks): 3.61 mg/kg/day | TD50 (mouse, strain B6C3F1, males, by gavage, site: myocardium, lesion: sarcoma, NOS, dosed 52 weeks, study length 81 weeks): 5.55 mg/kg/day | TD50 (mouse, strain B6C3F1, males, by gavage, site: stomach, lesion: squamous-cell carcinoma, dosed 52 weeks, study length 83 weeks): 29 mg/kg/day | TD50 (rat, strain Sprague-Dawley, females, by gavage, site: any site (literature study), lesion: several types, types named in the paper, dosed 52 weeks, study length 85 weeks): 0.189 mg/kg/day (inactive) | TD50 (rat, strain Sprague-Dawley, males, by gavage, site: any site (literature study), lesion: several types, types named in the paper, dosed 52 weeks, study length 85 weeks): 3.85 mg/kg/day (inactive) | TD50 (rat, strain Sprague-Dawley, males, by gavage, site: mammary gland, lesion: fibroadenoma, dosed 52 weeks, study length 85 weeks): 0.756 mg/kg/day (inactive)

S=C([S-])NCCNC(=S)[S-].[Zn+2]
TD50 [1]: 1150 mg/kg/day (inactive) | carcinogen call [2]: negative (inactive) | TD50 [3]: 1150 mg/kg/day (inactive) | TD50 [4]: 715 mg/kg/day (inactive) | TD50 [5]: 903 mg/kg/day (inactive) | carcinogen call [6]: negative (inactive) | TD50 [7]: 1150 mg/kg/day (inactive) | carcinogen call [8]: negative (inactive) | TD50 (mouse, strain B6C3F1, females, oral dosing, site: lung, lesion: adenoma, dosed 76 weeks, study length 76 weeks): 1150 mg/kg/day (inactive) | TD50 [9]: 189 mg/kg/day (inactive) | TD50 [10]: 244 mg/kg/day (inactive) | carcinogen call (mouse, strain B6C3F1, males, oral dosing, site: lung, lesion: several types, types named in the paper, dosed 76 weeks, study length 76 weeks): negative (inactive) | carcinogen call (mouse, strain CFLP, females, in feed, site: any site (literature study), lesion: several types, types named in the paper, dosed 92 weeks, study length 94 weeks): negative (inactive) | TD50 (mouse, strain CFLP, females, in feed, site: liver, lesion: hepatocellular adenoma, dosed 92 weeks, study length 94 weeks): 1730 mg/kg/day (inactive) | TD50 (mouse, strain CFLP, females, in feed, site: liver, lesion: hepatocellular carcinoma, dosed 92 weeks, study length 94 weeks): 12600 mg/kg/day (inactive) | TD50 (mouse, strain CFLP, females, in feed, site: lung, lesion: adenocarcinoma, dosed 92 weeks, study length 94 weeks): 6490 mg/kg/day (inactive) | carcinogen call (mouse, strain CFLP, females, in feed, site: lung, lesion: adenoma, dosed 92 weeks, study length 94 weeks): negative (inactive) | carcinogen call (mouse, strain CFLP, males, in feed, site: any site (literature study), lesion: several types, types named in the paper, dosed 96 weeks, study length 96 weeks): negative (inactive) | TD50 (mouse, strain CFLP, males, in feed, site: liver, lesion: hepatocellular adenoma, dosed 96 weeks, study length 96 weeks): 420 mg/kg/day (inactive) | TD50 (mouse, strain CFLP, males, in feed, site: liver, lesion: hepatocellular carcinoma, dosed 96 weeks, study length 96 weeks): 3700 mg/kg/day (inactive) | carcinogen call (mouse, strain CFLP, males, in feed, site: lung, lesion: adenocarcinoma, dosed 96 weeks, study length 96 weeks): negative (inactive) | TD50 (mouse, strain CFLP, males, in feed, site: lung, lesion: adenoma, dosed 96 weeks, study length 96 weeks): 932 mg/kg/day (inactive) | carcinogen call (rat, strain Charles River CD (Sprague-Dawley), females, in feed, site: liver, lesion: hepatocellular adenoma, dosed 112 weeks, study length 112 weeks): negative (inactive) | TD50 (rat, strain Charles River CD (Sprague-Dawley), females, in feed, site: liver, lesion: hepatocellular carcinoma, dosed 112 weeks, study length 112 weeks): 1190 mg/kg/day (inactive) | TD50 (rat, strain Charles River CD (Sprague-Dawley), females, in feed, site: pituitary gland, lesion: adenoma, dosed 112 weeks, study length 112 weeks): 27.9 mg/kg/day (inactive) | carcinogen call (rat, strain Charles River CD (Sprague-Dawley), males, in feed, site: liver, lesion: hepatocellular adenoma, dosed 119 weeks, study length 119 weeks): negative (inactive) | TD50 (rat, strain Charles River CD (Sprague-Dawley), males, in feed, site: liver, lesion: hepatocellular carcinoma, dosed 119 weeks, study length 119 weeks): 1080 mg/kg/day (inactive) | carcinogen call (rat, strain Charles River CD (Sprague-Dawley), males, in feed, site: pituitary gland, lesion: adenoma, dosed 119 weeks, study length 119 weeks): negative (inactive) | TD50 (rat, strain Mongrel, both sexes, by gavage, site: any site (literature study), lesion: several types, types named in the paper, dosed 95 weeks, study length 104 weeks): 255 mg/kg/day

O=S(=O)(Oc1ccc(Cl)cc1)c1ccc(Cl)cc1
carcinogen call [1]: negative (inactive) | carcinogen call [2]: negative (inactive) | carcinogen call [3]: negative (inactive) | carcinogen call [4]: negative (inactive) | carcinogen call [5]: negative (inactive) | carcinogen call [6]: negative (inactive) | TD50 [7]: 931 mg/kg/day (inactive) | TD50 [8]: 931 mg/kg/day (inactive) | carcinogen call (mouse, strain B6C3F1, females, oral dosing, site: lung, lesion: several types, types named in the paper, dosed 76 weeks, study length 76 weeks): negative (inactive) | TD50 [9]: 84.5 mg/kg/day (inactive) | TD50 [10]: 422 mg/kg/day (inactive) | TD50 (mouse, strain B6C3F1, males, oral dosing, site: lung, lesion: adenoma, dosed 76 weeks, study length 76 weeks): 869 mg/kg/day (inactive)

CCCc1cc(=O)[nH]c(=S)[nH]1
TD50 (mouse, strain C57BL, both sexes, in feed, site: pituitary gland, lesion: adenoma, dosed 73 weeks, study length 73 weeks): 409 mg/kg/day | TD50 (rat, strain Long-Evans, males, in feed, site: thyroid gland, lesion: adenoma, dosed 52 weeks, study length 52 weeks): 10.3 mg/kg/day | TD50 (rat, strain Wistar albino, females, in drinking water, site: thyroid gland, lesion: adenoma, dosed 78 weeks, study length 78 weeks): 15.8 mg/kg/day | TD50 (rat, strain Wistar albino, females, in drinking water, site: thyroid gland, lesion: carcinoma, dosed 78 weeks, study length 78 weeks): 115 mg/kg/day | TD50 (rat, strain Wistar albino, males, in drinking water, site: thyroid gland, lesion: adenoma, dosed 78 weeks, study length 78 weeks): 17.2 mg/kg/day | TD50 (rat, strain Wistar albino, males, in drinking water, site: thyroid gland, lesion: carcinoma, dosed 78 weeks, study length 78 weeks): 79.3 mg/kg/day | carcinogen call (rat, strain Wistar, males, in drinking water, site: thyroid gland, lesion: adenoma, dosed 26 weeks, study length 104 weeks): negative (inactive)

CNC[C@H](O)c1cccc(O)c1
TD50 (mouse, strain B6C3F1, females, in feed, site: any site (literature study), lesion: several types, types named in the paper, dosed 103 weeks, study length 104 weeks): 911 mg/kg/day (inactive) | TD50 (mouse, strain B6C3F1, females, in feed, site: liver, lesion: hepatocellular adenoma + hepatocellular carcinoma + neoplastic nodule, dosed 103 weeks, study length 104 weeks): 7850 mg/kg/day | TD50 (mouse, strain B6C3F1, females, in feed, site: lung, lesion: alveolar/bronchiolar adenoma + alveolar/bronchiolar carcinoma, dosed 103 weeks, study length 104 weeks): 1610 mg/kg/day | TD50 (mouse, strain B6C3F1, males, in feed, site: any site (literature study), lesion: several types, types named in the paper, dosed 103 weeks, study length 104 weeks): 6330 mg/kg/day | TD50 (mouse, strain B6C3F1, males, in feed, site: liver, lesion: hepatocellular adenoma + hepatocellular carcinoma + neoplastic nodule, dosed 103 weeks, study length 104 weeks): 4270 mg/kg/day | TD50 (mouse, strain B6C3F1, males, in feed, site: lung, lesion: alveolar/bronchiolar adenoma + alveolar/bronchiolar carcinoma, dosed 103 weeks, study length 104 weeks): 2130 mg/kg/day | TD50 (mouse, strain B6C3F1, males, in feed, site: multiple organs + spleen, lesion: malignant lymphoma, mixed type, dosed 103 weeks, study length 104 weeks): 1720 mg/kg/day | TD50 (mouse, strain B6C3F1, males, in feed, site: subcutaneous tissue, lesion: fibrosarcoma, dosed 103 weeks, study length 104 weeks): 1640 mg/kg/day (inactive) | TD50 (rat, strain Fischer 344, females, in feed, site: any site (literature study), lesion: several types, types named in the paper, dosed 103 weeks, study length 104 weeks): 272 mg/kg/day (inactive) | carcinogen call (rat, strain Fischer 344, males, in feed, site: any site (literature study), lesion: several types, types named in the paper, dosed 103 weeks, study length 104 weeks): negative (inactive)

CC=NO
TD50 (rat, strain Fischer 344, males, in drinking water, site: liver, lesion: hyperplastic nodule, dosed 110 weeks, study length 129 weeks): 445 mg/kg/day

O=C1NC(c2ccc([N+](=O)[O-])s2)Nc2ccccc21 (stereo not given)
TD50 (rat, strain Sprague-Dawley, females, in feed, site: any site (literature study), lesion: several types, types named in the paper, dosed 46 weeks, study length 66 weeks): 1.53 mg/kg/day | TD50 (rat, strain Sprague-Dawley, females, in feed, site: mammary gland, lesion: adenocarcinoma, dosed 46 weeks, study length 66 weeks): 13.3 mg/kg/day
